{
  "source": "patent US20110123623A1",
  "about": "“RHAMNOLIPID MECHANISM” (priority 2009, published 2011)",
  "key": {"[1]": {"experiment": "Storage stability of Di-rhamnolipid W3CTS", "format": "physicochemical", "conditions": "kept under Nitrogen in bottles at room temperature, 10 years", "excerpt": "Di-rhamnolipid W3CTS has been isolated from Pseudomonas aeruginosa. Production of >98.5% pure Di-rhamnolipid W3CTS is a very expensive procedure; thus, the goal is to produce the clinically accepted purity of the rhamnolipid that has a long shelf life."}, "[2]": {"test_system": "neonatal human keratinocytes", "experiment": "Colony forming efficiency of neonatal human keratinocytes", "format": "cell-based", "conditions": "GM medium with 10% fetal bovine serum", "method": "Colony forming efficiency of neonatal human keratinocytes treated with Di-rhamnolipid W3CTS.\nThe stimulation was most significant at 100 μg/ml and 50 μg/ml the colony forming ability was increased by 34% at 50 μg/ml of Di-rhamnolipid W3CTS. The results are consistent with the effects of Di-rhamnolipid W3CTS on the neonatal human keratinocyte viability in GM with 10% fetal bovine serum."}, "[3]": {"test_system": "neonatal human keratinocytes", "experiment": "Neonatal human keratinocyte cell culture (proliferation, viability, apoptosis)", "format": "cell-based", "method": "On the contrary, Di-rhamnolipid W3CTS in the presence of serum and at high concentration of calcium increased the proliferation and the viability of keratinocytes and decreased the caspase activity. At the concentration of 50 μg/ml, Di-rhamnolipid W3CTS maximally stimulated the proliferation (34%) and the viability of keratinocytes (25%) as compared to control, and decreased the apoptosis (49%)."}, "[4]": {"experiment": "Neonatal human fibroblast cell culture (proliferation, viability, apoptosis)", "format": "cell-based", "conditions": "human, neonatal human fibroblasts; 100 μg/ml; presence of serum; read-out: inhibition of viability of fibroblasts", "method": "(§1) At the same concentration of 100 μg/ml W3CTS increased apoptosis by 72%."}, "[5]": {"test_system": "neonatal human fibroblasts", "experiment": "Neonatal human fibroblast cell culture (proliferation, viability, apoptosis)", "format": "cell-based", "method": "as §1"}, "BALB/c male mice": {"test_system": "BALB/c male mice", "experiment": "Immunostimulation (humoral)", "format": "in vivo, mouse", "excerpt": "(§2) Immunostimulation (humoral) in BALB/c male mice and Immunosuppression (humoral)^(2,7) on ICR male mice were negative."}, "ICR male mice": {"test_system": "ICR male mice", "experiment": "Immunosuppression (humoral)", "format": "in vivo, mouse", "excerpt": "as §2"}, "[6]": {"test_system": "Swiss-Webster female mice", "experiment": "Acute cutaneous irritation, mouse ear assay (Part A)", "format": "in vivo", "conditions": "single topical application, up to 24 hours", "method": "Effects of Di-rhamnolipid W3CTS on TPA/pyr induced acute inflammation in the ears of Swiss-Webster female mice.\nThe aim of this study was two-fold. In Part A the potential of a single topical application of W3CTS to cause acute cutaneous irritation (up to 24 hours) was measured in a mouse ear assay system. […] The aim of Part B was to determine the effects of a single topical administration of W3CTS on acute dermal inflammation induced by TPA/pyr, Part B was designed to differentiate the ability of Di-rhamnolipid W3CTS at concentration 1 mg/ml to prevent, inhibit or reverse induced ear inflammation."}, "nude guinea pigs": {"test_system": "nude guinea pigs", "experiment": "DNCB induced delayed type hypersensitivity in nude guinea pigs", "format": "in vivo, guinea pig", "method": "The nude guinea pig is used as a test animal because of different animal skins; nude guinea pig skin is claimed to be the one closest resembling human skin.\nIn DNCB sensitized guinea pigs delayed type hypersensitivity reactions were induced with patches soaked with 0.25% (w/v) DNCB in ethanol/propylene glycol kept on the animals back for 24 hours. The test sites were treated twice daily during 7 days with: Dovonex ointment ([…]), 1% Di-rhamnolipid W3CTS in Vaseline, vehicle and untreated area. […] Dovonex has been improved by time."}, "female and male mice": {"test_system": "female and male mice", "experiment": "Blood findings after one single i/v dose", "format": "in vivo, mouse", "conditions": "75 mg/kg single i/v dose", "method": "Blood findings in female and male mice treated i/v with one single dose of 75 mg/kg of Di-rhamnolipid W3CTS\nMonocytes were increased in treated mice up to 100% after 4th day and 29th"}, "[7]": {"test_system": "normal Sprague-Dawley rats", "experiment": "Full-thickness burn wounds, topical treatment", "format": "in vivo, rat", "method": "The effects of Di-rhamnolipid W3CTS on full-thickness burn wounds in normal Sprague-Dawley rats.\nDi-rhamnolipid W3CTS was prepared in a eucerine ointment applied topically on full-thickness burn wounds in normal Sprague-Dawley rats covering 5% of the whole skin area. The rate of wound closure was measured over the period of 45 days. The collagen content was evaluated microscopically, by performing densitometric analysis on Verhoeff's stained histopathological slides of wound biopsies taken at the end of 45th day of di-rhamnolipid treatment. The treatment of full thickness-burn wounds covering 5% of the whole body skin area with topical applications (2 per day) of 0.1% di-rhamnolipid in eucerine ointment accelerated the closure of wounds on day 21 of the treatment by 32% compared to the control (p<0.05). […] The results of this study raise the possibility of potential efficacy of di-rhamnolipid in accelerating normal wound healing and perhaps in overcoming defects associated with healing failure in chronic wounds."}, "psoriatic patients": {"test_system": "psoriatic patients", "experiment": "Physician sponsored treatment of psoriatic patients (PASI)", "format": "in vivo, human", "excerpt": "Twelve psoriatic hospital bed patients, and one patient with seborrheic dermatitis and psoriasis, one patient with lichen planus and one with dermatitis cicumscripta unilocullaris as an out clinic patient were recruited as study volunteers.\nAbbreviations: PASI=Psoriasis Area Severity Index (Erythema, Infiltration and Scaling); PVP=Psoriasis Vulgaris in Placibus; d=days; m=months; y=years; ster=steroids (treated)"}, "[8]": {"test_system": "chronic decubitus ulcer in humans", "experiment": "Treatment of chronic decubitus ulcer", "format": "in vivo, human", "conditions": "topical 0.1% eucerin ointment; single case", "excerpt": "Treatment of Chronic Decubitus Ulcer with Di-Rhamnolipid W3CTS"}, "[9]": {"conditions": "200 μg/ml and 500 μg/ml, causing necrosis"}},
  "note": "Values joined by “and” are separate entries in the source; they are usually repeats but may differ in a detail not shown here. Equal entries are not always repeated.",
  "data": [
    {"smiles": "CCCCCCCC(CC(=O)O)OC(=O)CC(CCCCCCC)OC1OC(C)C(O)C(O)C1OC1OC(C)C(O)C(O)C1O", "note": "(centres unmarked) [Di-rhamnolipid W3CTS]", "values": [
      {"measurement": "change of structure on storage", "setting": "[1]", "result": "did not change its structure during 10 years"},
      {"measurement": "colony forming ability increase", "setting": "[2]; 50 μg/ml", "result": 34, "unit": "%"},
      {"measurement": "growth of keratinocyte colonies", "setting": "[2]; 100, 50, 10 and 1 μg/ml", "result": "stimulated the growth of keratinocyte colonies"},
      {"measurement": "decrease of apoptosis of keratinocytes", "setting": "[3]; 50 μg/ml, serum, high calcium", "result": 49, "unit": "%"},
      {"measurement": "stimulation of proliferation of keratinocytes vs control", "setting": "[3]; 50 μg/ml, serum, high calcium", "result": 34, "unit": "%"},
      {"measurement": "stimulation of viability of keratinocytes vs control", "setting": "[3]; 50 μg/ml, serum, high calcium", "result": 25, "unit": "%"},
      {"measurement": "cell proliferation and viability, keratinocytes", "setting": "[3]; [9]", "result": "fully inhibited cell proliferation and viability"},
      {"measurement": "proliferation and viability of keratinocytes", "setting": "[3]; without serum, low calcium, 100 μg/ml, caused necrosis", "result": "fully inhibited proliferation and viability"},
      {"measurement": "cytotoxicity at 100 μg/ml", "setting": "[4]", "result": 28, "unit": "%"},
      {"measurement": "increase of apoptosis of fibroblasts", "setting": "[5]; 100 μg/ml, presence of serum", "result": 72, "unit": "%"},
      {"measurement": "cell proliferation and viability, fibroblasts", "setting": "[5]; [9]", "result": "fully inhibited cell proliferation and viability"},
      {"measurement": "inhibition at 100 µg/mL", "setting": "[5]; Homo sapiens, Fibroblast, 100 μg/ml, presence of serum", "result": 46, "unit": "%"},
      {"measurement": "Immunostimulation (humoral)", "setting": "BALB/c male mice", "result": "negative"},
      {"measurement": "Immunosuppression (humoral)", "setting": "ICR male mice", "result": "negative"},
      {"measurement": "acute cutaneous irritation (ear erythema)", "setting": "[6]", "result": "did not cause acute cutaneous irritation"},
      {"measurement": "anti-inflammatory effect in the model", "setting": "nude guinea pigs; 1% in Vaseline, preliminary data", "result": "very strong anti-inflammatory effect"},
      {"measurement": "state of test areas by day 7", "setting": "nude guinea pigs; treated twice daily during 7 days, W3CTS 1% in Vaseline", "result": "healed"},
      {"measurement": "increase of monocytes", "setting": "female and male mice; after 4th day and 29th", "result": "up to 100%"},
      {"measurement": "increase of neutrophils in blood", "setting": "female and male mice; after 29 days", "result": 43.61, "unit": "%"},
      {"measurement": "decrease of lymphocytes", "setting": "female and male mice; fourth day", "result": 24.15, "unit": "%"},
      {"measurement": "increase of neutrophils in blood", "setting": "female and male mice; fourth day", "result": 51.77, "unit": "%"},
      {"measurement": "decrease of lymphocytes", "setting": "female and male mice; twenty nine days", "result": 24.60, "unit": "%"},
      {"measurement": "decrease of collagen content in burn wounds vs vehicle", "setting": "[7]; 0, 1% in eucerine, biopsies at end of 45th day, p<0.05", "result": 47.5, "unit": "%"},
      {"measurement": "acceleration of closure of wounds vs control", "setting": "[7]; 0.1% in eucerine ointment, 2 per day topical, day 21, p<0.05", "result": 32, "unit": "%"},
      {"measurement": "wound closure", "setting": "[7]; 0.1% ointment, day 35", "result": "wounds closed in all animals"},
      {"measurement": "Ames test", "setting": "Ames test", "result": "negative"},
      {"measurement": "Psoriasis Area Severity Index After Treatment W3CTS", "setting": "psoriatic patients; 1.0% eucerin ointment, 15-40 treating days, one patient per line", "result": "0.2 (5×) and 0.3 and 0.4 and 6 and 0.6 (2×) and 1.6 and 0.9"},
      {"measurement": "Psoriasis Area Severity Index Extended Evaluation W3CTS", "setting": "psoriatic patients; 1 y (year), one patient per line", "result": 1, "unit": "y = 0"},
      {"measurement": "Psoriasis Area Severity Index Extended Evaluation W3CTS", "setting": "psoriatic patients; 3 m (months), one patient per line", "result": "3 m = 0 (2×) and 3 m relapse and 3 m = 0.1"},
      {"measurement": "Psoriasis Area Severity Index Before Treatment W3CTS", "setting": "psoriatic patients; baseline of W3CTS treated lesions, one patient per line", "result": "9.6 (2×) and 8.1 (3×) and 10.8 (4×) and 14.4 and 5.4 and 8.4"},
      {"measurement": "duration free of psoriatic lesions", "setting": "psoriatic patients; some of the patients", "result": "free of psoriatic lesions up to seven years"},
      {"measurement": "healing of chronic decubitus ulcer", "setting": "[8]", "result": "profound beneficial effect on the healing"}
    ]}
  ]
}
